Converted amounts (≈) assume the structure as drawn. Residues, ends and D or L forms follow the SMILES beside them.
Legend:
[1] = system: E. coli ATCC25922; assay type: cell-based, Escherichia coli
Protocol: The minimal inhibitory concentration (MIC) was determined according to a previously described method ([Chou et al., 2016]). Bacteria were cultured overnight to mid-log phase in MHB at 37°C and then diluted to give final concentrations ranging from 2 × 10^5 to 7 × 10^5 CFU/mL. Then, 50 μL of serial twofold dilutions of the peptides were added to each well in 96-well microtiter plates with a mixed solution containing 0.01% acetic acid and 0.2% bovine serum albumin (BSA, Sigma) was used to dissolve and dilute the peptides. Then, equal amounts of bacterial aliquots were incubated with the above peptide solution for 18-24 h at 37°C. The experiment was performed in triplicate using three replicates for each peptide and each bacterium. The broth was employed as a negative control and the broth with microbial cells was used as a positive control. The lowest concentration of peptide that prevented visible turbidity was defined as the MIC. The condition sensitivity of peptides was tested in an MIC assay in different environments, including salt sensitivity, thermal sensitivity and different pH values similar to our previous method ([[…] et al., 2008]; [Ma et al., 2012]). […] For the heat resistance experiments, the peptides were incubated at 100°C for 30 min and cooled on ice for 10 min. […] The determination methods for these MIC assays were same as described above. To test the effects of serum on the antimicrobial activities of the peptides, human serum was dissolved in MHB to reach final concentrations of 25 and 50%. The determination methods for these MIC assays were same as described above.

[2] = system: S. pullorum C79-13; assay type: cell-based, Salmonella pullorum
Protocol: (§1) The minimal inhibitory concentration (MIC) was determined according to a previously described method ([Chou et al., 2016]). Bacteria were cultured overnight to mid-log phase in MHB at 37°C and then diluted to give final concentrations ranging from 2 × 10^5 to 7 × 10^5 CFU/mL. Then, 50 μL of serial twofold dilutions of the peptides were added to each well in 96-well microtiter plates with a mixed solution containing 0.01% acetic acid and 0.2% bovine serum albumin (BSA, Sigma) was used to dissolve and dilute the peptides. Then, equal amounts of bacterial aliquots were incubated with the above peptide solution for 18–24 h at 37°C. The experiment was performed in triplicate using three replicates for each peptide and each bacterium. The broth was employed as a negative control and the broth with microbial cells was used as a positive control. The lowest concentration of peptide that prevented visible turbidity was defined as the MIC.

[3] = system: B. subtilis CMCC 63501; assay type: cell-based, Bacillus subtilis
Protocol: as §1

[4] = system: E. coli; experiment: Time killing assay; assay type: cell-based, Escherichia coli; details: mean of three independent assays
Protocol: The ability of peptides to kill bacterial cells was further investigated by analyzing the fraction of cell survival upon peptide treatment at various exposure times according to a previously described method ([Wiradharma et al., 2012]). Briefly, E. coli and S. aureus were treated at MIC and 2 × MIC concentrations with peptides. At various time periods (0, 5, 10, 30, 60, 90, 120, and 150 min), microbial suspensions were diluted at three different dilutions and plated on MHA plates. Microbial colonies were formed and counted after 24 h of incubation. The results were presented as the mean data from three independent assays.

[5] = Calcein dye leakage from negatively charged LUVs; details: POPG/CL (3:1) LUVs, 100 μM lipid, 15 min, all tested concentrations (2 to 64 μM); relative to 0.1% Triton X-100
Protocol: Prepared calcein-entrapped large unilamellar vesicles (LUVs) were optimized using a previous method ([Stromstedt et al., 2009]). The negatively charged lipids composed of POPG/CL (3:1) were dissolved in chloroform, dried with a stream of nitrogen and resuspended in dye buffer solution (70 mM calcein, 10 mM Tris, 150 mM NaCl, and 0.1 mM EDTA, pH 7.4). The suspension was subjected to 10 freeze-thaw cycles in liquid nitrogen and extruded 21 times through polycarbonate filters (two stacked 100-nm pore size filters) with a LiposoFast extruder (Avestin, Inc., Canada). Untrapped calcein was removed by gel filtration on a Sephadex G-50 column. The lipid concentration was determined by quantitative phosphorus analysis. […] The leakage of calcein from LUVs was monitored by measuring the fluorescence intensity at an excitation wavelength of 490 nm and an emission wavelength of 520 nm on an F-4500 Fluorescence Spectrophotometer (Hitachi, Japan). […] The percentage of the calcein release caused by the AMPs was calculated using the following equation: (3) Dye release (%)=(Fobs−F0)/(F100−F0)×100% where F0 is the fluorescence intensity of the liposomes (background) and Fobs and F100 are the fluorescence intensities achieved by the peptides and Triton X-100, respectively.

[6] = LPS-binding assay (BODIPY-TR-cadaverine displacement); set-up: species or system Escherichia coli; details: BC displacement at the MIC concentration; relative to 10 μg/mL polymyxin B
Protocol: The binding affinities of peptides to LPS were examined using the BODIPY-TR-cadaverine fluorescent dye (BC, Sigma, United States) displacement assay, in which a probe bound to cell-free LPS results in dequenching of BC fluorescence. Stock solutions of LPS from E. coli O111:B4 (5 mg/mL; Sigma-Aldrich, China) and BC (2.5 mg/mL; Sigma-Aldrich, China) were prepared and diluted in Tris buffer (pH 7.4, 50 mM) to reach a final concentration of 50 μg/mL of LPS and 5 μg/mL BC. A 100 μL aliquot of the LPS-probe and peptide mixture (50 μL LPS and BC solutions at final concentrations of 25 μg/mL LPS and 2.5 μg/mL BODIPY-TR-cadaverine, 50 μL peptide with various concentrations ranging from 1 to 64 μM) was added in a sterile 96-well black plate. The fluorescence was measured on a spectrofluorophotometer (the Infinite 200 pro, Tecan, China) at excitation and emission wavelengths of 580 and 620 nm, respectively, with each test performed independently in triplicate. The values were converted to % ΔF (AU) using the following equation:
where Fobs is the observed fluorescence at a given peptide concentration, F0 is the initial fluorescence of BC with LPS in the absence of peptides, and F100 is the BC fluorescence with LPS cells upon addition of 10 μg/mL polymyxin B, which is a prototype LPS binder and was used as a positive control.

CC[C@H](C)[C@H](N)C(=O)N[C@@H](Cc1c[nH]cn1)C(=O)N[C@@H](CCCCN)C(=O)N[C@@H](Cc1ccccc1)C(=O)N[C@@H](Cc1c[nH]c2ccccc12)C(=O)N[C@@H](CCCNC(=N)N)C(=O)N[C@@H](CS)C(=O)N[C@@H](CCCNC(=N)N)C(=O)N[C@@H](CCCNC(=N)N)C(=O)N[C@@H](CCCNC(=N)N)C(=O)N[C@@H](Cc1ccccc1)C(=O)N[C@@H](CS)C(=O)N[C@@H](CCCNC(=N)N)C(=O)N[C@@H](Cc1c[nH]c2ccccc12)C(=O)N[C@@H](Cc1ccccc1)C(=O)N[C@@H](CCCCN)C(=O)N[C@@H](Cc1c[nH]cn1)C(=O)N[C@H](C(N)=O)[C@@H](C)CC [PQ] (H-IHKFWRCRRRFCRWFKHI-NH2; N-terminus assumed)
MIC ([1]; ATCC25922): 16 µM (≈ 41.2 µg/mL) | MIC, CaCl2 ([1]; ATCC25922): 32 µM (≈ 82.4 µg/mL) | MIC, Control ([1]; ATCC25922): 16 µM (≈ 41.2 µg/mL) | MIC, FeCl3 ([1]; ATCC25922): 8 µM (≈ 20.6 µg/mL) | MIC, Heat (100°C) ([1]; ATCC25922): 32 µM (≈ 82.4 µg/mL) | MIC, KCl ([1]; ATCC25922): 4 µM (≈ 10.3 µg/mL) | MIC, MgCl2 ([1]; ATCC25922): 4 µM (≈ 10.3 µg/mL) | MIC, NH4Cl ([1]; ATCC25922): 4 µM (≈ 10.3 µg/mL) | MIC, NaCl ([1]; ATCC25922): 8 µM (≈ 20.6 µg/mL) | MIC, ZnCl2 ([1]; ATCC25922): 4 µM (≈ 10.3 µg/mL) | MIC, pH 4.0 ([1]; ATCC25922, pH 4): 8 μM | MIC, pH 6.0 ([1]; ATCC25922, pH 6): 8 μM | MIC, pH 8.0 ([1]; ATCC25922, pH 8): 4 μM | MIC, pH 10.0 ([1]; ATCC25922, pH 10): 4 μM | MIC [2]: 8 µM (≈ 20.6 µg/mL) | MIC [3]: 16 µM (≈ 41.2 µg/mL) | Time to kill E. coli ([4]; peptide at 1 × MIC): 30 min | Time to kill E. coli ([4]; peptide at 2 × MIC): 30 min | Dye leakage (calcein release) [5]: more than 40% | LPS binding, fluorescence (% ΔF) [6]: above 80%
